Reference: US6812243B2, “Indole derivatives and their use for the treatment of malignant and other diseases based on pathological proliferation” (Zentaris AG, priority 1998, dated 2004)
Read-outs that look alike come from different tables or passages of the source.

How the values were obtained:
[1] = target: T1, EGF receptor tyrosine kinase (Homo sapiens, UniProt P00533); assay: EGFR phosphorylation in intact A 431 cells; assay type: cell-based; settings: intact A431 cells; read-out: EGFR phosphorylation in vivo (A 431 cells), IC 50
T1 construct: tested in intact A431 cells; endogenous in cells; host or cells: A431 cells
T1 sequence (P00533 25-1210): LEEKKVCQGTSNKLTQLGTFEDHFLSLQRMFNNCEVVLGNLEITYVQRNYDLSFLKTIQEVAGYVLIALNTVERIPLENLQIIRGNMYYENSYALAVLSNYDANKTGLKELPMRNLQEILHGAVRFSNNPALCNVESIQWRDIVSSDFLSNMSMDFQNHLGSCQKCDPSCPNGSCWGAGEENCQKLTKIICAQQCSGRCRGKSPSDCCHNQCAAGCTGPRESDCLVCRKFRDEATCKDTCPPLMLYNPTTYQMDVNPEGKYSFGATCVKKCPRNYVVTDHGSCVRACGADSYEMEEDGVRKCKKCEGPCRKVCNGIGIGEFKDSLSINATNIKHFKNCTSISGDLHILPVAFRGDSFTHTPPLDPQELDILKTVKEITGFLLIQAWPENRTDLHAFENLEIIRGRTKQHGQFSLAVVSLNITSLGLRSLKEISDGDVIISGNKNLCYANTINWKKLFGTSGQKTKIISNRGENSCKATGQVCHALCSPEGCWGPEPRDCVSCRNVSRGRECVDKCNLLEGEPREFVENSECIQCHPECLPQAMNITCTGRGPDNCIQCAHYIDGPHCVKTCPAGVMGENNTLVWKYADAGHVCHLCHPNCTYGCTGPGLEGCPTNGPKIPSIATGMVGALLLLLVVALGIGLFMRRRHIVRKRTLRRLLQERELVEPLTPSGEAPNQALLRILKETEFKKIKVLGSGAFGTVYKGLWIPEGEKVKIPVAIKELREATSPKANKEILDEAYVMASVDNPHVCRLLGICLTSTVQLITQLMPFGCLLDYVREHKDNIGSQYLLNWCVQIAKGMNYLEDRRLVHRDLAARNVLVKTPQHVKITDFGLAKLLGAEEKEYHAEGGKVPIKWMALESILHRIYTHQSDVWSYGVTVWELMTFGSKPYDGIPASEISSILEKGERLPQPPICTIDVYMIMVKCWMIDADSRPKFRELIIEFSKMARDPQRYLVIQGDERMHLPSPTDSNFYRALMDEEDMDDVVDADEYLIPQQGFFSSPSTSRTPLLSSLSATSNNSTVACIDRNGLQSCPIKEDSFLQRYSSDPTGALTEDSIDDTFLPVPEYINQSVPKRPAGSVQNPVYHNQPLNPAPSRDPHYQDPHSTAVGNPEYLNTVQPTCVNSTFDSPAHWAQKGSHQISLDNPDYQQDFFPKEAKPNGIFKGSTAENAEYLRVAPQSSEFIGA
Procedure: The compounds according to the invention were furthermore investigated in vitro using isolated plasma membranes of Swiss 3T3 cells and using PDGF receptor purified from overexpressing cells, tested in intact A431 cells (and in some cases also in Swiss 3T3 plasma membranes) for possible inhibition of the EGF receptor tyrosine kinase and tested for inhibition of recombinant Src kinase.
30 μM. The compounds thus have specificity for the inhibition of the PDGF receptor tyrosine kinase in relation to other tyrosine kinases.

Swiss 3T3 cells = assay: DNA synthesis in growth factor stimulated Swiss 3T3 cells; assay type: cell-based
Description: DNA synthesis tests in Swiss 3T3 cells which are stimulated with different growth factors are suitable for characterizing selective antiproliferative actions of receptor tyrosine kinase inhibitors. The compounds were investigated with respect to their action on the DNA sythesis stimulated in these cells by PDGF-BB, bFGF, FCS and the combination of EGF and insulin. These stimulants are approximately equipotent and increase the DNA synthesis in previously growth-arrested Swiss 3T3 cells to 5- to 20-fold.

[2] = system: sis-transformed NIH3T3 cells; assay: Colony formation of sis-3T3 cells in soft agar; assay type: cell-based; settings: Mus musculus, read-out: Colony formation (sis-3T3 cells), IC 50
Description: Furthermore, the compounds were investigated for a possible antitransforming action using sis-transformed NIH3T3 cells. In these cells, a transformed phenotype characterized, inter alia, by irregular multilayered growth and colony formation in soft agar is maintained by expression of PDGF-BB and permanent activation of the endogenous PDGF receptors.

PDGF receptor = target: T2, PDGF receptor (Mus musculus, UniProt P05622); assay: Inhibition of PDGF-dependent tyrosine phosphorylation in intact Swiss 3T3 cells; assay type: cell-based; settings: 2 h incubation with compound, PDGF-BB 100 ng/ml for 5 min, read-out: IC 50 (μM), inhibition of PDGF-dependent tyrosine phosphorylation
T2 construct: other: Swiss 3T3 cells, 2 h incubation with compound; PDGFR phosphorylation in vivo (Swiss 3T3 cells), IC 50; other: intact Swiss 3T3 cells; PDGFR phosphorylation in vitro (Swiss 3T3 membranes), IC 50; other: isolated plasma membranes of Swiss 3T3 cells
T2 sequence (P05622 32-1098): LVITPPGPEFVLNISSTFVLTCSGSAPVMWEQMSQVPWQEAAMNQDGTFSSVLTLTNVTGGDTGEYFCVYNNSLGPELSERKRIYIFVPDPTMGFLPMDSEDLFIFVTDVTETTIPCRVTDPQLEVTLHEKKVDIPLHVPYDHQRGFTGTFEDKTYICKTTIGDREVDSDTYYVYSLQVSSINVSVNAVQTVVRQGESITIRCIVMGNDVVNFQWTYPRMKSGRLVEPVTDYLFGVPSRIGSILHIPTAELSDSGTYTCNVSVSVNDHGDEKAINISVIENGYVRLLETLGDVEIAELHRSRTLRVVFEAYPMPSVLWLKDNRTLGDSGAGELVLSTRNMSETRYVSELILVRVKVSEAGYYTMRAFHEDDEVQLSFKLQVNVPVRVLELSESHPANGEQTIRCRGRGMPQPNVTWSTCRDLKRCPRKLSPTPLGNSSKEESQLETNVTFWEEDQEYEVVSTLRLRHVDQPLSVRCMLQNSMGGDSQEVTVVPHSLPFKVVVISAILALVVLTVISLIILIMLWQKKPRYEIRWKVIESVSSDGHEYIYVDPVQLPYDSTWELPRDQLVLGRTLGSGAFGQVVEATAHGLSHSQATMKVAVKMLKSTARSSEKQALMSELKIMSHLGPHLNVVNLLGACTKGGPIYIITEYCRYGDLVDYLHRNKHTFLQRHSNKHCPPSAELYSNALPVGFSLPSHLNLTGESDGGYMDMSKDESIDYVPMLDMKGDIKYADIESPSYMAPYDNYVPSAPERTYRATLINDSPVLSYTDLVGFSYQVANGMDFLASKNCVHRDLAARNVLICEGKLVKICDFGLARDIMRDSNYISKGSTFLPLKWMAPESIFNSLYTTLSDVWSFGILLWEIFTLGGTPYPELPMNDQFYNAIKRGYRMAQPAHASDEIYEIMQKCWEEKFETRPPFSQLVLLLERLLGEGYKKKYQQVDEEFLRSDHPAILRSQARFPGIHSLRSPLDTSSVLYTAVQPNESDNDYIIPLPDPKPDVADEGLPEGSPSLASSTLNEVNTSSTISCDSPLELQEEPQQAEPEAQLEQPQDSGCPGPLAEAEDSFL
Procedure: Swiss 3T3 cells are cultured for 1 week under standard conditions (DMEM with glutamine, 4 g of glucose/1, 10% FCS, antibiotics, 5-7.5% CO2) and are confluent and no longer proliferating at the end of the culture period. The medium is replaced by serum-free DMEM and the cells are incubated at 37° C. for 2 h with the compounds according to the invention or, in control experiments, with DMSO (final concentration 0.1-1%). The cells are then stimulated at room temperature for 5 min by addition of PDGF-BB to a final concentration of 100 ng/ml, in controls addition of the corresponding solvent takes place. The cells are then washed twice with ice-cold PBS and lysed in a Triton X-100-containing lysis buffer (composition and process as described in Selective platelet-derived growth factor receptor kinase blockers reverse sis-transformation M. Kovalenko, A. Gazit, A. Böhmer, C. Rorsman, L. Rönnstrand, C. H. Heldin, J. Waltenberger, F. D. Böhmer, A. Levitzki (1994) Cancer Res. 54, 6106-6114). The lysates are centrifuged and the protein concentration is determined. […]
Tyrosine phosphorylation is detected by standard processes using antiphosphosphotyrosine [sic]antibodies. […] Quantification is carried out either by grey value analyses of films used for the luminescence detection or directly using a luminometer. […]

O=C(c1cc2ccccc2[nH]1)c1cc2ccccc2[nH]1 [Example 19, Bisindol-2-ylmethan-1-one]
IC50 [1]: > 10 µM | IC50 (Swiss 3T3 cells; Swiss-3T3, read-out: DNA synthesis (Swiss 3T3 cells), 10% FCS, IC 50): > 30 µM | IC50 (Swiss 3T3 cells; Swiss-3T3, read-out: DNA synthesis (Swiss 3T3 cells), EGF/insulin-stimulated, IC 50): > 30 µM | IC50 (Swiss 3T3 cells; Swiss-3T3, read-out: DNA synthesis (Swiss 3T3 cells), FGF-stimulated, IC 50): 3 to 10 µM | IC50 (Swiss 3T3 cells; Swiss-3T3, read-out: DNA synthesis (Swiss 3T3 cells), PDGF-stimulated, IC 50): 3 to 10 µM | IC50 [2]: 3 to 10 µM

COc1ccc2[nH]c(C(=O)c3cc4ccccc4[nH]3)cc2c1 [Example 20, (5-Methoxyindol-2-yl)-(indol-2-yl)methan-1-one]
IC50 [1]: > 10 µM | melting point: 233 to 235 °C

O=C(Cc1cccs1)Oc1ccc2[nH]c(C(=O)c3cc4ccccc4[nH]3)cc2c1 [Example 58]
IC50 (PDGF receptor): 0.3 to 1 µM

CN1C(=O)C(Br)=C(c2c(CCCCc3[nH]c4ccccc4c3C3=C(Br)C(=O)N(C)C3=O)[nH]c3ccccc23)C1=O [Example 117, 3-Bromo-4-(2-(4-(3-(4-bromo-1-methyl-2,5-dioxo-2,5-dihydro-1H-3-pyrrolyl)-1H-2-indolyl)butyl)-1H-3-indolyl)-1-methyl-2,5-dihydro-1H-pyrrole-2,5-dione]
melting point: 190 °C (dec.)

CN1C(=O)C(Br)=C(c2c(CCCCCCCCc3[nH]c4ccccc4c3C3=C(Br)C(=O)N(C)C3=O)[nH]c3ccccc23)C1=O [Example 118, 3-Bromo-4-(2-(8-(3-(4-bromo-1-methyl-2,5-dioxo-2,5-dihydro-1H-3-pyrrolyl)-1H-2-indolyl)octyl)-1H-3-indolyl)-1-methyl-2,5-dihydro-1H-pyrrole-2,5-dione]
melting point: 185 °C (dec.)

O=C1NC(=O)C(c2c(CCCCCCCCCCc3[nH]c4ccccc4c3C3=C(Br)C(=O)NC3=O)[nH]c3ccccc23)=C1Br [Example 120, 3-Bromo-4-(2-(10-(3-(4-bromo-2,5-dioxo-2,5-dihydro-1H-3-pyrrolyl)-1H-2-indolyl)decyl)-1H-3-indolyl)-2,5-dihydro-1H-pyrrole-2,5-dione]
melting point: 164 °C (dec.)

CN1C(=O)C(c2c(CCCCCc3[nH]c4ccccc4c3C3=C(N4CCCCC4)C(=O)N(C)C3=O)[nH]c3ccccc23)=C(N2CCCCC2)C1=O [Example 124, 1-Methyl-3-(1-piperidinyl)-4-(2-(5-(3-(1-methyl-4-(1-piperidinyl)-2,5-dioxo-2,5-dihydro-1H-3-pyrrolyl)-1H-2-indolyl)pentyl)-1H-3-indolyl)-2,5-dihydro-1H-pyrrole-2,5-dione]
melting point: 262 °C
